Measurements from patent US20100075960A1 (priority 2006, published 2010).
Counter-ions that a name gives are not always drawn.

Each compound was assayed on HCT116 (assay: Inhibition of cell proliferation, HCT116). Conditions: Homo sapiens, HCT-116; 72 h treatment; methylene blue or CellTiter-Glo.
Format: cell-based
Method: II. Inhibition of Cell Proliferation by PLK1 Inhibitors.
Exponentially growing cell lines of different tumor origins, cultured in appropriate media containing 10% fetal bovine serum at 37° C. in a 5% CO2 incubator were plated in 96 or 384-well plates. Twenty four hours post-plating, cells were treated with different concentrations of test compounds ranging from 20 μM to 0.04 nM. Several wells were left untreated as a control. Seventy two hours post-treatment, cell numbers were determined using different techniques; 100 μl per well of methylene blue (Sigma M9140) (0.5% in 50:50 Ethanol:water), or 10-100 μl per well of CellTiter-Glo (Promega #G7573), depending on well size. For methylene blue staining, stain was incubated at room temperature for 30 minutes before plates were rinsed and dye solubilized in 1% N-lauroyl sarcosine, sodium salt, (Sigma L5125, in PBS). Plates were read on a microplate reader, measuring the OD at 620 nm. For CellTiter-Glo, plates were incubated at room temperature for 15 minutes and the chemiluminescent signal was read on the Victor V or Envison 2100 reader.
Percent inhibition of cell growth was expressed as percent proliferation relative to 100% proliferation (control). Concentration of test compound that inhibited 50% of cell growth (IC50) was determined by 4 parameter fit of data using XLfit, (value of no cell control was substracted from all samples for background). The data are shown in Table 1 and Table 2 below and represent a compilation of several different experiments each performed using the general parameters outlined above, although minor variations may have been employed in some instances, in Table 1 and Table 2, +=IC50>1 μM; ++=IC50 0.5-1 μM: +++=IC50<0.5 μM.
`C[C@@H](Oc1cc(-n2cnc3cc(-c4cnn(C)c4)ccc32)sc1C(N)=O)c1cccc(OCC2CCNCC2)c1Cl` [Example 44, 3-[((1R)-1-{2-Chloro-3-[(4-piperidinylmethyl)oxy]phenyl}ethyl)oxy]-5-[5-(1-methyl-1H-pyrazol-4-yl)-1H-benzimidazol-1-yl]-2-thiophenecarboxamide trifluoroacetate] gave an IC50 of less than 0.5 µM.
`CC(Oc1cc(-n2cnc3cc(-c4cnn(C)c4)ccc32)sc1C(N)=O)c1cccc(OC2CCNCC2)c1` (racemic) [Example 73, (±)-5-[5-(1-Methyl-1H-pyrazol-4-yl)-1H-benzimidazol-1yl[-3-({1-[3-(4-piperidinyloxy)phenyl]ethyl}oxy)-2-thiophenecarboxamide] showed an IC50 greater than 1 µM.
For `CC(Oc1cc(-n2cnc3cc(-c4cnn(C)c4)ccc32)sc1C(N)=O)c1ccnc(OC2CCN(C)CC2)c1` (stereo not drawn) [Example 80], the IC50 was greater than 1 µM.
In the case of `C[C@@H](Oc1cc(-n2cnc3ccc(CS(C)(=O)=O)cc32)sc1C(N)=O)c1cccc(OCC2CCNCC2)c1Cl` [Example 56, 3-[((1R)-1-{2-chloro-3-[(4-piperidinylmethyl)oxy]phenyl}ethyl)oxy]-5-{6-[(methylsulfonyl)-methyl]-1H-benzimidazol-1-yl}-2-thiophenecarboxamide], the IC50 is reported as greater than 1 µM.
In the case of `C[C@@H](Oc1cc(-n2cnc3cc(F)c(Cl)cc32)sc1C(N)=O)c1cccc(OC2CCN(C)CC2)c1Cl` [Example 70, 5-(6-Chloro-5-fluoro-1H-benzimidazol-1-yl)-3[((1R)-1-(2-chloro-3-[(1methyl-4-piperidinyl)oxy]phenyl}ethyl)oxy]-2-thiophenecarboxamide], the IC50 is reported as less than 0.5 µM.
`C[C@@H](Oc1cc(-n2cnc3ccccc32)sc1C(N)=O)c1cccc(OCCN2CCN(C)CC2)c1Cl` [Example 17] showed an IC50 of less than 0.5 µM.
Work on `CN1CCC(Oc2cccc(COc3cc(-n4cnc5cc(-c6cnn(C)c6)ccc54)sc3C(N)=O)c2)CC1` [Example 84, 3-[({3-[(1Methyl-4piperidinyl)oxy]phenyl}methyl)oxy]-5-[5-(1-methyl-1H-pyrazol-4-yl)-1H-benzimidazol-1-yl]-2-thiophenecarboxamide] yielded an IC50 of 0.5 to 1 µM.
Work on `COc1cc2ncn(-c3cc(O[C@H](C)c4cccc(OCCN5CCN(C)CC5)c4Cl)c(C(N)=O)s3)c2cc1OC` [Example 42, 5-[5,6-Bis(methyloxy)-1H-benzimidazol-1-yl]-3-{[(1R)-1-(2-chloro-3-{[2-(4-methyl-1-piperazinyl)ethyl]oxy}phenyl)ethyl]oxy}-2-thiophenecarboxamide] yielded an IC50 of less than 0.5 µM.
Work on `C[C@@H](Oc1cc(-n2cnc3ccc(CS(C)(=O)=O)cc32)sc1C(N)=O)c1cccc(OC2CCNCC2)c1Cl` [Example 54] yielded an IC50 greater than 1 µM.
`C[C@@H](Oc1cc(-n2cnc3cc(-c4cnn(C)c4)ccc32)sc1C(N)=O)c1cccc(OC2CCN(C(=O)OC(C)(C)C)CC2)c1Cl` [Example 46, 1,1-Dimethylethyl 4-({3-[(1R)-1-({2-(aminocarbonyl)-5-[5-(1-methyl-1H-pyrazol-4-yl)-1H-benzimidazol-1-yl]-3-thienyl}oxy)ethyl]-2-chlorophenyl}oxy)-1-piperidinecarboxylate] showed an IC50 of less than 0.5 µM.
`CC(Oc1cc(-n2cnc3cc(-c4cnn(C)c4)ccc32)sc1C(N)=O)c1cccc(OC2CCN(C)CC2)c1` (racemic) [Example 74, (±)-3-[(1-{3-[(1-methyl-4-piperidinyl)oxy]phenyl}ethyl)oxy]-5-[5-(1-methyl-1H-pyrazol-4-yl)-1H-benzimidazol-1-yl]-2-thiophenecarboxamide] was tested, and the IC50 was less than 0.5 µM.
`CC(Oc1cc(-n2cnc3cc(-c4cnn(C)c4)ccc32)sc1C(N)=O)c1cccc(OC2CCN(C)CC2)n1` (racemic) [Example 82, (±)-3-[(1-{6-[(1-Methyl-4-piperidinyl)oxy]-2-pyridinyl)ethyl)oxy]-5-[5-(1-methyl-1H-pyrazol-4-yl)-1H-benzimidazol-1-yl]-2-thiophenecarboxamide] showed an IC50 greater than 1 µM.
In the case of `C[C@@H](Oc1cc(-n2cnc3cc(Cl)ccc32)sc1C(N)=O)c1cccc(OC2CCN(CCS(C)(=O)=O)CC2)c1Cl` [Example 23, 5-(5-Chloro-1H-benzimidazol-1-yl)-3-({(1R)-1-[2-chloro-3-({1-[2-(methylsulfonyl)ethyl]-4-piperidinyl}oxy)phenyl]ethyl}oxy)-2-thiophenecarboxamide], the IC50 is reported as less than 0.5 µM.
In the case of `C[C@@H](Oc1cc(-n2cnc3cc(-c4cnn(C)c4)ccc32)sc1C(N)=O)c1cccc(OCCN2CCOCC2)c1Cl` [Example 25, 3-{[(1R)-1-(2-chloro-3-{[2-(4-morpholinyl)ethyl]oxy}phenyl)ethyl]oxy}-5-[5-(1-methyl-1H-pyrazol-4yl)-1H-benzimidazol-1-yl]-2-thiophenecarboxamide], the IC50 is reported as less than 0.5 µM.
`C[C@@H](Oc1cc(-n2cnc3cc(Cl)ccc32)sc1C(N)=O)c1cccc(OCCN2CCOCC2)c1Cl` [Example 26, 5-(5-Chloro-1H-benzimidazol-1-yl)-3-{[(1R)-1-(2-chloro-3-{[2-(4-morpholinyl)ethyl]oxy}phenyl)ethyl]oxy}-2-thiophenecarboxamide] showed an IC50 of less than 0.5 µM.
Compound `C[C@@H](Oc1cc(-n2cnc3cc(OC(F)(F)F)ccc32)sc1C(N)=O)c1cccc(OC2CCNCC2)c1Cl` [Example 61] has an IC50 of less than 0.5 µM.
With `C[C@@H](Oc1cc(-n2cnc3cc(Cl)ccc32)sc1C(N)=O)c1cccc(OC2CCN(CCO)CC2)c1Cl` [Example 20, 5-(5-Chloro-1H-benzimidazol-1-yl)-3-{((1R)-1-(2-chloro-3-{[1-(2-hydroxyethyl)-4-piperidinyl]oxy}phenyl)ethyl]oxy}-2-thiophenecarboxamide] the IC50 was less than 0.5 µM.
`C[C@@H](Oc1cc(-n2cnc3cc(-c4cc[n+]([O-])cc4)ccc32)sc1C(N)=O)c1cccc(OC2CCNCC2)c1Cl` [Example 37, 3-({(1R)-1-1-[2-Chloro-3-(4-piperidinyloxy)phenyl]ethyl}oxy)-5-[5-(1-oxido-4-pyridinyl)-1H-benzimidazol-1-yl]-2-thiophenecarboxamide] gave an IC50 greater than 1 µM.
`C[C@@H](Oc1cc(-n2cnc3cc(Cl)ccc32)sc1C(N)=O)c1cccc(OC[C@@H]2CNCCO2)c1Cl` [Example 28, 5-(5-Chloro-1H-benzimidazol-1-yl)-3-{[(1R)-1-(2-chloro-3-{[(2S)-2-morpholinomethyl]oxy}phenyl)ethyl]oxy}-2-thiophenecarboxamide] gave an IC50 of less than 0.5 µM.
With `C[C@@H](Oc1cc(-n2cnc3cc(-c4cnn(C)c4)ccc32)sc1C(N)=O)c1ccc(F)c(OC2CCN(C)CC2)c1Cl` [Example 34, 3-[((1R)-1-{2-Chloro-4-fluoro-3-[(1-methyl-4-piperidinyl)oxy]phenyl}ethyl)oxy]-5-[5-(1-methyl-1H-pyrazol-4-yl)-1H-benzimidazol-1-yl]-2-thiophenecarboxamide trifluoroacetate] the IC50 was less than 0.5 µM.
Compound `CC(Oc1cc(-n2cnc3cc(-c4cnn(C)c4)ccc32)sc1C(N)=O)c1ccnc(OC2CCNCC2)c1` (racemic) [Example 79, (±)-5-[5-(1-Methyl-1H-pyrazol-4-yl)-1H-benzimidazol-1-yl]-3-({1-[2-(4-piperidinyloxy)-4-pyridinyl]ethyl}oxy)-2-thiophenecarboxamide] has an IC50 greater than 1 µM.
`C[C@@H](Oc1cc(-n2cnc3cc(-c4cnn(C)c4)ccc32)sc1C(N)=O)c1ccc(F)c(OC2CCNCC2)c1Cl` [Example 33, 3-({(1R)-1-[2-Chloro-4-fluoro-3-(4-piperidinyloxy)phenyl]ethyl}oxy)-5-[5-(1-methyl-1H-pyrazol-4-yl)-1H-benzimidazol-1-yl]-2-thiophenecarboxamide] was tested, and the IC50 was less than 0.5 µM.
`COc1cc2ncn(-c3cc(O[C@H](C)c4cccc(OCC5CCN(C)CC5)c4Cl)c(C(N)=O)s3)c2cc1OC` [Example 41, 5-[5,6-Bis(methyloxy)-1H-benzimidazol-1-yl]-3-{[(1R)-1-(2-chloro-3-{[(1-methyl-4-piperidinyl)methyl]oxy}phenyl)ethyl]oxy}-2-thiophenecarboxamide] gave an IC50 of less than 0.5 µM.
For `Cn1cc(-c2ccc3c(c2)ncn3-c2cc(OCc3cccc(OC4CCNCC4)c3)c(C(N)=O)s2)cn1` [Example 83, 5-[5-(1-Methyl-1H-pyrazol-4-yl)-1H-benzimidazol-1-yl]-3-({[3-(4-piperidinyloxy)phenyl]methyl}oxy)-2-thiophenecarboxamide], the IC50 was greater than 1 µM.
`CC(Oc1cc(-n2cnc3cc(-c4cnn(C)c4)ccc32)sc1C(N)=O)c1cc(OC2CCNCC2)ccn1` (stereo not drawn) [Example 85, 5-[5-(1-Methyl-1H-pyrazol-4-yl)-1H-benzimidazol-1-yl]-3-({1-[4-(4-piperidinyloxy)-2-pyridinyl]ethyl}oxy)-2-thiophenecarboxamide] was tested, and the IC50 was greater than 1 µM.
Compound `C[C@@H](Oc1cc(-n2cnc3ccccc32)sc1C(N)=O)c1cccc(OCCN2CCNCC2)c1Cl` [Example 16, 5-(1H-benzimidazol-1-yl)-3-{[(1R)-1-(2-chloro-3-{[2-(1-piperazinyl)ethyl]oxy}phenyl)ethyl]oxy}-2-thiophenecarboxamide] has an IC50 of less than 0.5 µM.
`C[C@@H](Oc1cc(-n2cnc3cc(-c4cnn(C)c4)ccc32)sc1C(N)=O)c1ccc(F)c(OC2CCN(CCF)CC2)c1Cl` [Example 35, 3-{[(1R)-1-(2-Chloro-4-fluoro-3-{[1-(2-fluoroethyl)-4-piperidinyl]oxy}phenyl)ethyl]oxy}-5-[5-(1-methyl-1H-pyrazol-4-yl)-1H-benzimidazol-1-y]-2-thiophenecarboxamide] was tested, and the IC50 was less than 0.5 µM.
